{"source": "patent US20230321187A1", "about": "“OCTOPUS-DERIVED PEPTIDE OCTOPROMYCIN HAVING ANTIBACTERIAL AND ANTI-BIOFILM ACTIVITY AGAINST ACINETOBACTER BAUMANNII” (priority 2020, published 2023)", "key": {"A. baumannii [1]": {"system": "A. baumannii", "assay": "H2DCF-DA assay of ROS production", "format": "cell-based, Acinetobacter baumannii", "conditions": "MIC (50 μg/mL) and MBC (200 μg/mL), 10 hours", "experimental": "To further examine a mode of action of octopromycin related to endogenous ROS production in A. baumannii by octopromycin, H2DCF-DA assay was performed. The accumulation of ROS in A. baumannii was quantified using fluorescent probe carboxy-H2DCF-DA (Invitrogen, USA). An A. baumannii culture solution (OD-0.25, 5×10^6 CFU/mL) was treated with octopromycin (MIC; 50 μg/mL and MBC; 200 μg/mL) and cultured at 25° C. for 10 hours, and then, cells were harvested by centrifugation at 5000 rpm for 2 minutes. To detect ROS levels, the cells were stained with H2DCF-DA (100 μg/mL) and cultured at room temperature (24±1° C.) for 30 minutes and then centrifuged at 5000 rpm for 2 minutes. The cells were washed with ×1 PBS and dichloro-fluorescein (DCF) fluorescence was measured using CLSM (LSMS Live Configuration Variotwo VRGB, Zeiss, Germany) at an excitation wavelength of 488 nm and an emission wavelength of 535 nm."}, "zebrafish embryos": {"system": "zebrafish embryos", "assay": "Zebrafish embryo toxicity (mortality and teratogenicity)", "format": "in vivo", "experimental": "Wild-type (AB) adult zebrafish was maintained in an automated water circulation system at 28° C. under a photoperiod of 14 h (light): 10 h (dark). After zebrafish (to 4 months of age) was mated, embryos were collected at a 1 hours post fertilization (1 hpf) stage and rinsed with embryo water. First, the viability of newly fertilized embryos was identified under a stereoscopic microscope (Nikon, SMZ1000, Japan) before use in experiments. To determine toxicity levels at 24, 48, 72, and 96 hours after exposure, embryos at stages 1-2 hpf were exposed to various concentrations of octopromycin (0 to 8 μg/mL) for 96 hours.\nIn addition, to evaluate in vivo toxicity, the cumulative mortality of developing zebrafish embryos for 96 hours was calculated at octopromycin exposure (0, 0.25, 0.50, 1.00, 2.00, 4.00, and 8.00 μg/mL). […] However, concentration-dependent mortality patterns occurred by an increase in octopromycin concentration."}, "[2]": {"assay": "MTT cytotoxicity assay in HEK293 cells", "format": "cell-based, human", "conditions": "HEK293T cells", "experimental": "(§1) To measure the cytotoxicity of octopromycin on HEK293T (American Type Culture Collection ATCC-11268) and Raw 264.7 cells, the cells were treated with octopromycin and cell viability was evaluated. The cells were harvested, counted and seeded at a density of […] per well in a 96-well plate and cultured for 24 hours at 37° C. and 5% CO2. The cells were treated with different concentrations of octopromycin (0 to 800 μg/mL) and cultured for 24 hours. After culturing, the culture medium was replaced with a fresh medium, and 10 μL of MTT (5 mg/mL) was added to each well and incubated in a CO2 incubator for 4 hours. The formed formazan crystals were dissolved in 50 μL of DMSO and absorbance was measured at 570 nm using a microplate reader (Bio-Rad Laboratories, Inc, USA). Cells treated with the medium (control) were considered as 100% viability (control group), and current viability was normalized and calculated for the untreated control group."}, "HEK293T cells": {"system": "HEK293T cells", "assay": "MTT cytotoxicity assay in HEK293 cells", "format": "cell-based, human", "experimental": "as §1"}, "A. baumannii [3]": {"system": "A. baumannii", "assay": "Histological analysis of A. baumannii-infected zebrafish (H&E)", "format": "in vivo", "conditions": "48 hpe, vs A. baumannii-infected group", "excerpt": "Two zebrafish were selected from each group at the 80% death stage (48 hpe) and the spleen, gills and kidneys were collected separately. Structural changes in A. baumannii-infected zebrafish treated with octopromycin were confirmed by histological analysis. Briefly, two fish from each group (control group, A. baumannii-infected group and octopromycin-treated group) were anesthetized with excess tricaine and the spleen, gills, and kidneys were surgically removed. Each tissue was immersed in PBS and fixed in 10% neutral buffered formalin. After a 12-hour washing step, tissues were dehydrated using a graded series of alcohols in a semi-closed benchtop tissue processor (Leica® TP1020, Germany). The dehydrated tissues were paraffin-embedded (Leica®EG1150 Tissue Embedding Center, Germany), sectioned at […] (Leica®RM2125 microtome, Germany), and stained with Hematoxylin and Eosin (H & E) (Sigma, Aldrich). The stained tissues of each group were imaged using a digital camera (LEICA®DCF450-C, Germany) connected to a microscope (LEICA®DM 3000 LED)."}, "A. baumannii [4]": {"system": "A. baumannii", "assay": "A. baumannii-infected zebrafish model (viability, CFU, clinical signs)", "format": "in vivo", "experimental": "The effect of octopromycin as an antibacterial agent was confirmed using zebrafish as an animal model.\nA total of 72 zebrafish (average weight: 0.35±0.05 g) were divided into 3 groups: (1) non-infected control group treated with PBS and water, (2) A. baumannii-infected group, and (3) A. baumannii-infected and octopromycin-treated group (octopromycin-treated group).\nZebrafish was anesthetized using system water containing 160 μg/mL of tricaine (ethyl 3-aminobenzoate methane sulfonate). The control group ((1) group) was injected with 10 μL of nucleous free water (NFW) and 20 μL of PBS using a Hamilton® syringe. The A. baumannii-infected group ((2) group) was injected intraperitoneally with 10 μL of NFW, and the octopromycin-treated group ((3) group) was injected intraperitoneally with 10 μL of octopromycin (10 μg/fish). Then, A. baumannii was injected intraperitoneally (0 hpi) in the A. baumannii-infected group and the octopromycin-treated group at a dose of 20 μ1 (3.4×10^11 CFU) per fish, and then injected every 2 hpi until 48 hpi. To confirm the antibacterial effect of octopromycin, fish mortality was recorded every 12 hpi and the viability of each group was examined.\nIn addition, the number of bacteria (CFU) in the kidneys and spleens of the control group and the infected zebrafish was observed. 3 fish from each group at the 80% mortality stage of the A. baumannii-infected group was selected, and then the spleen and the kidney were collected, and individual spleen and kidney tissues from each zebrafish were homogenized in PBS and the homogenates were serially diluted and loaded onto an agar plate (TSA) to measure A. baumannii CFU."}}, "note": "Entries after “also recorded” stand apart in the source; their conditions may differ. Where no end group is shown, it is not given here."}
{"sequence": "RRLIRTDTGPIIYDYFKDQLLKKGMVILRESMKNLKGM [octopromycin]", "values": [{"measurement": "ROS level", "setting": "A. baumannii [1]", "result": "increased in a concentration-dependent manner; also recorded: increased the production of reactive oxygen species"}, {"measurement": "embryo mortality", "setting": "zebrafish embryos; 0.25 μg/mL, 96 hours exposure", "result": "no embryo mortality"}, {"measurement": "toxicity to zebrafish embryos", "setting": "zebrafish embryos; 4 μg/mL", "result": "not toxic"}, {"measurement": "embryo mortality", "setting": "zebrafish embryos; 8.0 μg/mL, 24 hpe", "result": 100, "unit": "%"}, {"measurement": "maximum non-lethal concentration", "setting": "zebrafish embryos; zebrafish embryos, no abnormal appearance", "result": 4, "unit": "µg/mL"}, {"measurement": "viability at 24 h", "setting": "[2]; human embryonic kidney 293T, concentration not given, read-out: cells alive", "result": "≥ 85", "unit": "%"}, {"measurement": "viability at 24 h, 400 µg/mL", "setting": "[2]; human, HEK293, 400 μg/mL, 24 hours, read-out: cell viability", "result": 85, "unit": "%"}, {"measurement": "cell viability", "setting": "HEK293T cells; HEK293, >400 μg/mL", "result": "significantly reduced"}, {"measurement": "toxic effect", "setting": "HEK293T cells; HEK293, MBC level (200 μg/mL)", "result": "no toxic effect"}, {"measurement": "histology of kidney, spleen and gills", "setting": "A. baumannii [3]", "result": "tissue disorders and pathological damage were reduced overall; also recorded: tissue disorders and pathological damage were reduced in all tissues"}, {"measurement": "viability of infected zebrafish", "setting": "A. baumannii [4]; 10 μg/fish intraperitoneally, 48 hours after A. baumannii infection", "result": 37.5, "unit": "%"}, {"measurement": "number of bacteria (CFU) in spleen and kidney", "setting": "A. baumannii [4]; 10 μg/fish, rank among the three groups", "result": "second highest"}, {"measurement": "external clinical signs (hemorrhage)", "setting": "A. baumannii [4]; 10 μg/fish, vs A. baumannii-infected group", "result": "less hemorrhage"}]}
